According to patent publication US6908935B2, “Calcium receptor modulating agents” (Amgen Inc., priority 2002, dated 2005):

Target: T1, human parathyroid cell Ca^2+ receptor (hPCaR) (Homo sapiens, UniProt P41180)
T1 construct: expressed in transfected cells
T1 sequence (P41180 20-1078): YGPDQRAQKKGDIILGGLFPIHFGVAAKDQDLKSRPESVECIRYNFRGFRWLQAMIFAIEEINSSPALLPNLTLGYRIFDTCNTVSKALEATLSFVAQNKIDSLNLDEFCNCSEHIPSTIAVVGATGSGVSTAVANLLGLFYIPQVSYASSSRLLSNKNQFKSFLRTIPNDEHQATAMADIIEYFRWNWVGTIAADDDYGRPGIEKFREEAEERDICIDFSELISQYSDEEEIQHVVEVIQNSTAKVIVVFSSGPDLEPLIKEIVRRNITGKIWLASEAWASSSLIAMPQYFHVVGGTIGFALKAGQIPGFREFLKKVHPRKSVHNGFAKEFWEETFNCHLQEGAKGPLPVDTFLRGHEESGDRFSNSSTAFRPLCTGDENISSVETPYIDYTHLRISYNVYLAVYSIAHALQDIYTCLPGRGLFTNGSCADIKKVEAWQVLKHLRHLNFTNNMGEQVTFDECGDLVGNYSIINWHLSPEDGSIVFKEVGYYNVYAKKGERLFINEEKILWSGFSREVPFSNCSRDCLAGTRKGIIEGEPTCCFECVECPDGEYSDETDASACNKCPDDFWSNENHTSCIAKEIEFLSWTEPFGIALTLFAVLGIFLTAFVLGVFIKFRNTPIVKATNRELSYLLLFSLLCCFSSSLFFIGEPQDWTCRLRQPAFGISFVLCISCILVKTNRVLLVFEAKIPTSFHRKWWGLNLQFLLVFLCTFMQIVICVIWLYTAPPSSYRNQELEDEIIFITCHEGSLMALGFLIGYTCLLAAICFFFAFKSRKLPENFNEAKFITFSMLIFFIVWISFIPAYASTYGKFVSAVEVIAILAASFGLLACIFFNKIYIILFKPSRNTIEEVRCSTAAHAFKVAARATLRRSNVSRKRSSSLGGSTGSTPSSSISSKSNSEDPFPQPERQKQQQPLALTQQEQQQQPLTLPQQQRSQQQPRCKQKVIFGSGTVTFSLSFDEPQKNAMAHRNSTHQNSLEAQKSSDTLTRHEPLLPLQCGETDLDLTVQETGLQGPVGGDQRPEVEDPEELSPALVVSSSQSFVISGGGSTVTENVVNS
Assay: [Ca2+]i measurement with fluo-3 in HEK 293 4.0-7 cells stably transfected with hPCaR
Assay type: cell-based
Conditions: fluo-3 fluorescence (485/530 nm), effect on [Ca^2+]i
Procedure: The activities of the compounds of the present invention on calcium receptors were measured. In one embodiment, the measurement was performed in accordance with the method described in Example 4 of Nemeth et al., PCT/US95/13704 (International Publication No. WO96/12697) herein incorporated by reference.
A 4.0-kb NotI-HindIII fragment of the human parathyroid cell Ca^2+ receptor (hPCaR) cDNA was subcloned into the mammalian expression vector pCEP4 (Invitrogen) containing the hygromycin-resistant gene as a selectable marker. This plasmid was transfected into HEK 293 cells by calcium phosphate precipitation. Transfected cells were grown in Dulbecco's modified Eagle's medium containing 10% fetal bovine serum and hygromycin (200 μg/mL). Hygromycin-resistant colonies were subcloned and assayed for hPCaR mRNA by solution hybridization using a ^32P-labeled RNA probe complementary to the (4.0 kb) hPCaR sequence (Garrett, et al., J. Biol. Chem. 270, 12919-12925 (1995)). Clone 7 was used to assess the effects of compounds on [Ca^2+]i. This stably transfected cell line is termed HEK 293 4.0-7. For measurements of [Ca^2+]i, the cells were recovered from tissue culture flasks by brief treatment with 0.02% EDTA and then washed and resuspended in PCB containing 1 mM CaCl2 and 0.1% Bovine Serum Albumin (“BSA”). The cells were loaded with fluo-3 by incubation for 30 min at 37° C., with parathyroid cell buffer (126 mM NaCl, 4 mM KCl, 1 mM MgSO4, 0.7 mM K2HPO/KH2PO4, 20 mM HEPES.NaOH (pH 7.45)) containing 0.5% BSA in lmM CaCl2 and 2 μM fluo-3 acetoxymethyl ester. The cells were subsequently washed, each test compound was added to the cells and the fluorescence was recorded by using excitation and emission wavelengths of 485 and 530 nm, respectively.

Row | EC50 | SMILES
1 | ≤ 10 µM | COc1cccc([C@@H](C)NCc2cccc(-c3ccccn3)c2)c1 [(1R)-1-(3-(methyloxy)phenyl)-N-((3-(2-pyridinyl)phenyl)methyl)ethanamine]
2 | ≤ 10 µM | COc1ccc(-c2cc(CN[C@H](C)c3ccc(OC)cc3)ccc2F)cc1 [(1R)-N-((6-fluoro-4′-(methyloxy)-1,1′-biphenyl-3-yl)methyl)-1-(4-(methyloxy)phenyl)ethanamine]
3 | ≤ 10 µM | COc1ccc(CN[C@H](C)c2cccc3ccccc23)cc1-c1cn(C)cn1 [(1R)-N-((3-(1-methyl-1H-imidazol-4-yl)-4-(methyloxy)phenyl)methyl)-1-(1-naphthalenyl)ethanamine]
4 | ≤ 10 µM | COc1ccc([C@@H](C)NCc2cccc(-c3ccc(C)nc3)c2)cc1 [(1R)-1-(4-(methyloxy)phenyl)-N-((3-(6-methyl-3-yridinyl)phenyl)methyl)ethanamine]
5 | ≤ 10 µM | COc1ccc([C@@H](C)NCc2cccc(-c3ccc(NC(=O)CCC(=O)O)nc3)c2)cc1 [4-((5-(3-((((1R)-1-(4-(methyloxy)phenyl)ethyl)amino)methyl)phenyl)-2-pyridinyl)amino)-4-oxobutanoic acid]
6 | ≤ 10 µM | COc1ccc(CNC(C)c2cccc(OC(F)(F)F)c2)cc1-c1ccc(C(F)(F)F)cc1 (stereo not shown) [N-((6-(methyloxy)-4′-(trifluoromethyl)-1,1′-biphenyl-3-yl)methyl)-1-(3-((trifluoromethyl)oxy)phenyl)ethanamine]
7 | ≤ 10 µM | C[C@@H](NCc1cccc(-c2ccc3c(c2)OCO3)c1)c1ccccc1 [(1R)-N-((3-(1,3-benzodioxol-5-yl)phenyl)methyl)-1-phenylethanamine]
8 | ≤ 10 µM | COc1ccc(CN[C@H](C)c2ccccc2)cc1-c1ccc2nonc2c1 [(1R)-N-((3-(2,1,3-benzoxadiazol-5-yl)-4-(methyloxy)phenyl)methyl)-1-phenylethanamine]
9 | ≤ 10 µM | COc1ccc(-c2cc(CN[C@H](C)c3cccc(OC)c3)ccc2F)cc1 [(1R)-N-((6-fluoro-4′-(methyloxy)-1,1′-biphenyl-3-yl)methyl)-1-(3-(methyloxy)phenyl)ethanamine]
10 | ≤ 10 µM | COc1ccc(CN[C@H](C)c2ccccc2)cc1-c1cccnc1NCCCN1CCOCC1 [3-(2-(methyloxy)-5-((((1R)-1-phenylethyl)amino)methyl)phenyl)-N-(3-(4-morpholinyl)propyl)-2-pyridinamine]
11 | ≤ 10 µM | COc1cccc([C@@H](C)NCc2ccc(OC)c(-c3ccccc3)c2)c1 [(1R)-N-((6-(methyloxy)-1,1′-biphenyl-3-yl)methyl)-1-(3-(methyloxy)phenyl)ethanamine]
12 | ≤ 10 µM | COc1ccc(-c2cccc(CN[C@H](C)c3ccc(OC)cc3)c2)cc1 [(1R)-N-((4′-(methyloxy)-1,1′-biphenyl-3-yl)methyl)-1-(4-(methyloxy)phenyl)ethanamine]
13 | ≤ 10 µM | COc1cccc([C@@H](C)NCc2ccc(F)c(-c3ccc(F)cc3)c2)c1 [(1R)-N-((4′,6-difluoro-1,1′-biphenyl-3-yl)methyl)-1-(3-(methyloxy)phenyl)ethanamine]
14 | ≤ 10 µM | C[C@@H](NCc1cccc(-c2ccoc2)c1)c1cccc2ccccc12 [Example 225, (1R)-N-((3-(3-furanyl)phenyl)methyl)-1-(1-naphthalenyl)ethanamine]
15 | ≤ 10 µM | C[C@@H](NCc1ccc(Cl)c(-c2ccc(C(F)(F)F)cc2)c1)c1cccc2ccccc12 [(1R)-N-((6-chloro-4′-(trifluoromethyl)-1,1′-biphenyl-3-yl)methyl)-1-(1-naphthalenyl)ethanamine]
16 | ≤ 10 µM | COc1ccc(CN[C@H](C)c2cccc3ccccc23)cc1-c1ccc(S(C)(=O)=O)cc1 [(1R)-N-((6-(methyloxy)-4′-(methylsulfonyl)-1,1′-biphenyl-3-yl)methyl)-1-(1-naphthalenyl)ethanamine]

Row | EC50 | SMILES
17 | ≤ 10 µM | COc1cccc([C@@H](C)NCc2cccc(-c3ccc(C)nc3)c2)c1 [(1R)-1-(3-(methyloxy)phenyl)-N-((3-(6-methyl-3yridinyl)phenyl)methyl)ethanamine]
18 | ≤ 10 µM | COc1ccc(CN[C@H](C)c2ccc(C)cc2)cc1-c1cnc(N)nc1 [5-(2-(methyloxy)-5-((((1R)-1-(4-methylphenyl)ethyl)amino)methyl)phenyl)-2-pyrimidinamine]
19 | ≤ 10 µM | COc1ccc(CN[C@H](C)c2ccc(C)cc2)cc1-c1ccc(F)cc1 [(1R)-N-((4′-fluoro-6-(methyloxy)-1,1′-biphenyl-3-yl)methyl)-1-(4-methylphenyl)ethanamine]
20 | ≤ 10 µM | COc1ccc([C@@H](C)NCc2cccc(-c3ccccc3F)c2)cc1 [(1R)-N-((2′-fluoro-1,1′-biphenyl-3-yl)methyl)-1-(4-(methyloxy)phenyl)ethanamine]
21 | ≤ 10 µM | COc1cccc([C@@H](C)NCc2ccc(OC)c(-c3ccc4oc(C)nc4c3)c2)c1
22 | ≤ 10 µM | COc1cccc([C@@H](C)NCc2ccc(I)c(-c3ccc(C(F)(F)F)cc3)c2)c1 [(1R)-N-((6-iodo-4′-(trifluoromethyl)-1,1′-biphenyl-3-yl)methyl)-1-(3-(methyloxy)phenyl)ethanamine]
23 | ≤ 10 µM | COc1ccc(CN[C@H](C)c2ccccc2)cc1-c1cccnc1OCC(F)(F)F [(1R)-N-((4-(methyloxy)-3-(2-((2,2,2-trifluoroethyl)oxy)-3-pyridinyl)phenyl)methyl)-1-phenylethanamine]
24 | ≤ 10 µM | Cc1ccc([C@@H](C)NCc2cccc(-c3ccc(F)cc3)c2)cc1 [(1R)-N-((4′-fluoro-1,1′-biphenyl-3-yl)methyl)-1-(4-methylphenyl)ethanamine]
25 | ≤ 10 µM | COCCn1cc(-c2cc(CN[C@H](C)c3cccc(OC)c3)ccc2OC)ccc1=O [1-(2-(methyloxy)ethyl)-5-(2-(methyloxy)-5-((((1R)-1-(3-(methyloxy)phenyl)ethyl)amino)methyl)phenyl)-2-(1H)-pyridinone]
26 | ≤ 10 µM | COc1ccc(CN[C@H](C)c2ccccc2)cc1-c1cccc(C(F)(F)F)c1 [(1R)-N-((6-(methyloxy)-3′-(trifluoromethyl)-1,1′-biphenyl-3-yl)methyl)-1-phenylethanamine]
27 | ≤ 10 µM | COc1ccc(-c2cc(CN[C@H](C)c3ccccc3)ccc2O)cc1 [Example 391, 4′-(methyloxy)-5-((((1R)-1-phenylethyl)amino)methyl)-1,1′-biphenyl-2-ol]
28 | ≤ 10 µM | COc1ccc(CN[C@H](C)c2ccccc2)cc1-c1cccc(C(N)=O)c1 [2′-(methyloxy)-5′-((((1R)-1-phenylethyl)amino)methyl)-1,1′-biphenyl-3-carboxamide]
29 | ≤ 10 µM | COc1ccc(-c2cccc(CN[C@H](C)c3cccc(OC)c3)c2)cc1 [(1R)-N-((4′-(methyloxy)-1,1′-biphenyl-3-yl)methyl)-1-(3-(methyloxy)phenyl)ethanamine]
30 | ≤ 10 µM | COc1ccc(CN[C@H](C)c2cccc3ccccc23)cc1-c1cnc(OCC(F)(F)F)nc1 [(1R)-N-((4-(methyloxy)-3-(2-((2,2,2-trifluoroethyl)oxy)-5-pyrimidinyl)phenyl)methyl)-1-(1-naphthalenyl)ethanamine]
31 | ≤ 10 µM | C[C@@H](NCc1ccc(Cl)c(-c2ccc(OC(F)(F)F)cc2)c1)c1ccccc1 [(1R)-N-((6-chloro-4′-((trifluoromethyl)oxy)-1,1′-biphenyl-3-yl)methyl)-1-phenylethanamine]
